Tested on: LFS cells
Test: poly (I:C) stimulation of LFS cells, STAT1α and IFNβ gene expression
Type: cell-based, human
Settings: poly (I:C) treatment

Substance: poly (I:C)
- STAT1α and IFNβ gene expression (MDAH041-PC): induced
- STAT1α and IFNβ gene expression (MDAH087-1): no induction
- STAT1α and IFNβ gene expression (MDAH087-10): no induction
- STAT1α and IFNβ gene expression (MDAH087-N): induced
- STAT1α and IFNβ gene expression (MDAH087-PC): induced
- STAT1α and IFNβ gene expression (immortal MDAH041): induced

— US20050250137A1, “Molecular targets of cancer and aging” (priority 2002, published 2005)
